In brackets after ≈: the same amount, converted by molar mass. Where two headings read alike, the source gives them in different places.
Key:
Malassezia furfur = experiment: In vitro antifungal activity vs. yeasts (MIC/MFC); format: cell-based; settings: Malassezia furfur (n = 1)
all Candida strains = experiment: MIC range over all Candida strains tested; format: cell-based; settings: Table 13 strains
Candida albicans = experiment: In vitro fungicidal activity vs. Candida albicans
Coccidioides spp. = experiment: microbe, parasite or virus in culture; format: cell-based

Compound | MFC (Malassezia furfur) [ng/mL] | MIC (Malassezia furfur; 90% inhibition endpoint, read-out: MIC) [ng/mL] | MIC range for all Candida strains (all Candida strains) [ng/mL] | Fungicidal Concentration (Candida albicans; Candida albicans) [ng/mL] | MIC90 (Candida albicans; Candida albicans, 24 h, read-out: MIC90 24 h) [ng/mL] | MIC90 (Candida albicans; Candida albicans, 48 h, read-out: MIC90 48 h) [ng/mL] | remaining organisms (Candida albicans; growth-negative samples after 24 hr incubation, subcultured) [cfu/ml] | MIC90/MIC range 48 h (Coccidioides spp.; Coccidioides spp. (n = 30), MIC90) [ng/mL] | MIC90 (Coccidioides spp.; Coccidioides, 48 h) [ng/mL]
O=C(O)CCCCCCC/C=C\C#CC#Cc1ccco1 [Compound III″] | < 0.06 | < 0.06 | <0.06 to 4000 | 0.4 | 0.4 (≈ 1.41 nM) | 0.4 (≈ 1.41 nM) | < 5 |  | 
O=C([O-])CCCCCCC/C=C\C#CC#Cc1ccco1.[K+] [Compound IV″, potassium (Z)-14-(furan-2-yl)tetradeca-9-en-11,13-diynoate] |  |  |  |  |  |  |  | 30 | 30

— US8722910B2, “Diyne compositions” (Evolva AG, priority 2009, dated 2014)
